Measurements reported in patent US20240252506A1 (Hoffmann-La Roche Inc., priority 2021, published 2024).
≈ marks a conversion by molar mass, not a printed value.

Each molecule was assayed on Escherichia coli ATCC 25922 (assay: Minimal Inhibitory Concentration (MIC) determination, broth microdilution (CLSI M07-A10)). Conditions: Escherichia coli, ATCC25922, strain Escherichia coli ATCC 25922, 18-24 hours at 35±2° C., lowest concentration for complete growth inhibition (no visible growth), read-out: Escherichia coli growth inhibition MIC.
Type: cell-based
Procedure, shortened: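 Broth microdilution per CLSI M07-A10; compounds in 2-fold serial dilutions; inoculum from 0.5 McFarland suspension diluted 1:200 in broth. Incubated 18-24 h at 35±2° C in ambient air; MIC (μg/mL) taken as lowest concentration giving no visible growth.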

SMILES	MIC
O=C(O)C(F)(F)F.O=C1COc2ncc(N3CC4(CCN(CC5Cc6c(c(F)c7[nH]c([C@@H]8COCCN8)nc7c6F)C5)CC4)OC3=O)nc2N1 [Example 18, 6-[8-[[4,8-difluoro-2-[(3R)-morpholin-3-yl]-3,5,6,7-tetrahydrocyclopenta[f]benzimidazol-6-yl]methyl]-2-oxo-1-oxa-3,8-diazaspiro[4.5]decan-3-yl]-4H-pyrazino[2,3-b][1,4]oxazin-3-one; 2,2,2-trifluoroacetic acid]	0.5 µg/mL
CNCc1nc2c(F)c3c(c(F)c2[nH]1)CC(CNC1CC2(C1)CN(c1cnc4c(n1)NC(=O)CO4)C(=O)O2)C3 (stereo not drawn) [Example 19, 6-[2-[[4,8-difluoro-2-(methylaminomethyl)-3,5,6,7-tetrahydrocyclopenta[f]benzimidazol-6-yl]methylamino]-6-oxo-5-oxa-7-azaspiro[3.4]octan-7-yl]-4H-pyrazino[2,3-b][1,4]oxazin-3-one]	0.5 µg/mL (≈ 0.925 µM)
O=C(O)C(F)(F)F.O=C1COc2ncc(N3CC4(CCN(CC5Cc6c(c(F)c7[nH]c([C@@H]8CCC(=O)N8)nc7c6F)C5)CC4)OC3=O)nc2N1 [Example 21, 6-[8-[[4,8-difluoro-2-[(2S)-5-oxopyrrolidin-2-yl]-3,5,6,7-tetrahydrocyclopenta[f]benzimidazol-6-yl]methyl]-2-oxo-1-oxa-3,8-diazaspiro[4.5]decan-3-yl]-4H-pyrazino[2,3-b][1,4]oxazin-3-one; 2,2,2-trifluoroacetic acid]	1 µg/mL
O=C1COc2ncc(N3CC4(CCN(CC5Cc6c(c(F)c7c(nc8n7CCNC8)c6F)C5)CC4)OC3=O)nc2N1 (stereo not drawn) [Example 23, 6-[8-[(10,16-difluoro-2,5,8-triazatetracyclo[7.7.0.02,7.011,15]hexadeca-1(9),7,10,15-tetraen-13-yl)methyl]-2-oxo-1-oxa-3,8-diazaspiro[4.5]decan-3-yl]-4H-pyrazino[2,3-b][1,4]oxazin-3-one]	0.5 µg/mL (≈ 0.883 µM)
CN[C@H](C)c1nc2c(F)c3c(c(F)c2[nH]1)CC(CNC1CC2(C1)CN(c1cnc4c(n1)NC(=O)CO4)C(=O)O2)C3 (stereo partly drawn) [Example 26, 6-[2-[[4,8-difluoro-2-[(1R)-1-(methylamino)ethyl]-3,5,6,7-tetrahydrocyclopenta[f]benzimidazol-6-yl]methylamino]-6-oxo-5-oxa-7-azaspiro[3.4]octan-7-yl]-4H-pyrazino[2,3-b][1,4]oxazin-3-one]	0.5 µg/mL (≈ 0.902 µM)
CN(C)Cc1nc2c(F)c3c(c(F)c2[nH]1)CC(CNC1CC2(C1)CN(c1cnc4c(n1)NC(=O)CO4)C(=O)O2)C3 (stereo not drawn) [Example 29, 6-[2-[[2-[(dimethylamino)methyl]-4,8-difluoro-3,5,6,7-tetrahydrocyclopenta[f]benzimidazol-6-yl]methylamino]-6-oxo-5-oxa-7-azaspiro[3.4]octan-7-yl]-4H-pyrazino[2,3-b][1,4]oxazin-3-one]	0.5 µg/mL (≈ 0.902 µM)
N[C@H]1COC[C@@H]1c1nc2c(F)c3c(c(F)c2[nH]1)CC(CN1CCC2(CC1)CN(c1cnc4c(n1)NC(=O)CO4)C(=O)O2)C3 [Example 31, 6-[8-[[4,8-difluoro-2-[(3S,4R)-4-aminotetrahydrofuran-3-yl]-3,5,6,7-tetrahydrocyclopenta[f]benzimidazol-6-yl]methyl]-2-oxo-1-oxa-3,8-diazaspiro[4.5]decan-3-yl]-4H-pyrazino[2,3-b][1,4]oxazin-3-one]	0.25 µg/mL (≈ 0.419 µM)
Nc1nc2c(F)c3c(c(F)c2[nH]1)CC(CN1CCC2(CC1)CN(c1cnc4c(n1)NC(=O)CO4)C(=O)O2)C3 [Example 32, 6-[8-[(2-amino-4,8-difluoro-3,5,6,7-tetrahydrocyclopenta[f]benzimidazol-6-yl)methyl]-2-oxo-1-oxa-3,8-diazaspiro[4.5]decan-3-yl]-4H-pyrazino[2,3-b][1,4]oxazin-3-one]	0.25 µg/mL (≈ 0.475 µM)
CNCc1nc2c(F)c3c(c(F)c2n1C)CC(CN1CCC2(CC1)CN(c1cnc4c(n1)NC(=O)CO4)C(=O)O2)C3 (stereo not drawn) [Example 33, 6-[8-[[4,8-difluoro-1-methyl-2-(methylaminomethyl)-6,7-dihydro-5H-cyclopenta[f]benzimidazol-6-yl]methyl]-2-oxo-1-oxa-3,8-diazaspiro[4.5]decan-3-yl]-4H-pyrazino[2,3-b][1,4]oxazin-3-one]	0.25 µg/mL (≈ 0.44 µM)
O=C1COc2ncc(N3CC4(CCN(CC5Cc6c(c(F)c7[nH]c(C89CC(CN8)C9)nc7c6F)C5)CC4)OC3=O)nc2N1 [Example 34, 6-[8-[[2-(2-azabicyclo[2.1.1]hexan-1-yl)-4,8-difluoro-3,5,6,7-tetrahydrocyclopenta[f]benzimidazol-6-yl]methyl]-2-oxo-1-oxa-3,8-diazaspiro[4.5]decan-3-yl]-4H-pyrazino[2,3-b][1,4]oxazin-3-one]	0.25 µg/mL (≈ 0.422 µM)
C[C@H](O)[C@@H](N)c1nc2c(F)c3c(c(F)c2[nH]1)CC(CN1CCC2(CC1)CN(c1cnc4c(n1)NC(=O)CO4)C(=O)O2)C3 [Example 36, 6-[8-[[2-[(1S,2S)-1-amino-2-hydroxy-propyl]-4,8-difluoro-3,5,6,7-tetrahydrocyclopenta[f]benzimidazol-6-yl]methyl]-2-oxo-1-oxa-3,8-diazaspiro[4.5]decan-3-yl]-4H-pyrazino[2,3-b][1,4]oxazin-3-one]	0.5 µg/mL (≈ 0.855 µM)

Second part, the molecule after the results:

MIC	SMILES
0.25 µg/mL	O=C(O)C(F)(F)F.O=C1COc2ncc(N3CC4(CCN(CC5Cc6c(c(F)c7[nH]c(C8CNCCO8)nc7c6F)C5)CC4)OC3=O)nc2N1 (stereo not drawn) [Example 16, 6-[8-[(4,8-difluoro-2-morpholin-2-yl-3,5,6,7-tetrahydrocyclopenta[f]benzimidazol-6-yl)methyl]-2-oxo-1-oxa-3,8-diazaspiro[4.5]decan-3-yl]-4H-pyrazino[2,3-b][1,4]oxazin-3-one; 2,2,2-trifluoroacetic acid]
0.125 µg/mL	CN[C@H](C)c1nc2c(F)c3c(c(F)c2[nH]1)CC(CN1CCC2(CC1)CN(c1cnc4c(n1)NC(=O)CO4)C(=O)O2)C3.O=C(O)C(F)(F)F [Example 17, 6-[8-[[4,8-difluoro-2-[(1R)-1-(methylamino)ethyl]-3,5,6,7-tetrahydrocyclopenta[f]benzimidazol-6-yl]methyl]-2-oxo-1-oxa-3,8-diazaspiro[4.5]decan-3-yl]-4H-pyrazino[2,3-b][1,4]oxazin-3-one; 2,2,2-trifluoroacetic acid]
0.25 µg/mL	CNCCc1nc2c(F)c3c(c(F)c2n1C)CC(CN1CCC2(CC1)CN(c1cnc4c(n1)NC(=O)CO4)C(=O)O2)C3.O=C(O)C(F)(F)F (stereo not drawn) [Example 20, 6-[8-[[4,8-difluoro-1-methyl-2-[2-(methylamino)ethyl]-6,7-dihydro-5H-cyclopenta[f]benzimidazol-6-yl]methyl]-2-oxo-1-oxa-3,8-diazaspiro[4.5]decan-3-yl]-4H-pyrazino[2,3-b][1,4]oxain-3-one; 2,2,2-trifluoroacetic acid]
0.25 µg/mL	CNCc1nc2cc3c(c(F)c2o1)CC(CN1CCC2(CC1)CN(c1cnc4c(n1)NC(=O)CO4)C(=O)O2)C3.O=C(O)C(F)(F)F (stereo not drawn) [Example 22, 6-[8-[[8-fluoro-2-(methylaminomethyl)-6,7-dihydro-5H-cyclopenta[f][1,3]benzoxazol-6-yl]methyl]-2-oxo-1-oxa-3,8-diazaspiro[4.5]decan-3-yl]-4H-pyrazino[2,3-b][1,4]oxazin-3-one; 2,2,2-trifluoroacetic acid]
0.125 µg/mL (≈ 0.215 µM)	O=C1COc2ncc(N3CC4(CCN(CC5Cc6c(c(F)c7[nH]c([C@H]8CCCN8)nc7c6F)C5)CC4)OC3=O)nc2N1 [Example 24, 6-[8-[[4,8-difluoro-2-[(2R)-pyrrolidin-2-yl]-3,5,6,7-tetrahydrocyclopenta[f]benzimidazol-6-yl]methyl]-2-oxo-1-oxa-3,8-diazaspiro[4.5]decan-3-yl]-4H-pyrazino[2,3-b][1,4]oxazin-3-one]
≤ 0.06 µg/mL	C[C@@H](N)c1nc2c(F)c3c(c(F)c2[nH]1)CC(CN1CCC2(CC1)CN(c1cnc4c(n1)NC(=O)CO4)C(=O)O2)C3.O=C(O)C(F)(F)F [Example 25, 6-[8-[[2-[(1R)-1-aminoethyl]-4,8-difluoro-3,5,6,7-tetrahydrocyclopenta[f]benzimidazol-6-yl]methyl]-2-oxo-1-oxa-3,8-diazaspiro[4.5]decan-3-yl]-4H-pyrazino[2,3-b][1,4]oxazin-3-one; 2,2,2-trifluoroacetic acid]
0.25 µg/mL (≈ 0.41 µM)	CN[C@H]1CN[C@H](c2nc3c(F)c4c(c(F)c3[nH]2)CC(CN2CCC3(CC2)CN(c2cnc5c(n2)NC(=O)CO5)C(=O)O3)C4)C1 [Example 27, 6-[8-[[4,8-difluoro-2-[(2S,4R)-4-(methylamino)pyrrolidin-2-yl]-3,5,6,7-tetrahydrocyclopenta[f]benzimidazol-6-yl]methyl]-2-oxo-1-oxa-3,8-diazaspiro[4.5]decan-3-yl]-4H-pyrazino[2,3-b][1,4]oxazin-3-one]
0.25 µg/mL	O=C(O)C(F)(F)F.O=C1COc2ncc(N3CC4(CCN(CC5Cc6c(c(F)c7[nH]c([C@@H]8CC(O)CCN8)nc7c6F)C5)CC4)OC3=O)nc2N1 (stereo partly drawn) [Example 28, 6-[8-[[4,8-difluoro-2-[(2S)-4-hydroxy-2-piperidyl]-3,5,6,7-tetrahydrocyclopenta[f]benzimidazol-6-yl]methyl]-2-oxo-1-oxa-3,8diazaspiro[4.5]decan-3-yl]-4H-pyrazino[2,3-b][1,4]oxazin-3-one; 2,2,2-trifluoroacetic acid]
0.125 µg/mL (≈ 0.22 µM)	CC(C)(N)c1nc2c(F)c3c(c(F)c2[nH]1)CC(CN1CCC2(CC1)CN(c1cnc4c(n1)NC(=O)CO4)C(=O)O2)C3 [Example 30, 6-[8-[[2-(1-amino-1-methyl-ethyl)-4,8-difluoro-3,5,6,7-tetrahydrocyclopenta[f]benzimidazol-6-yl]methyl]-2-oxo-1-oxa-3,8-diazaspiro[4.5]decan-3-yl]-4H-pyrazino[2,3-b][1,4]oxazin-3-one]
0.125 µg/mL (≈ 0.209 µM)	CNCC(=O)Nc1nc2c(F)c3c(c(F)c2[nH]1)CC(CN1CCC2(CC1)CN(c1cnc4c(n1)NC(=O)CO4)C(=O)O2)C3 [Example 35, N-[4,8-difluoro-6-[[2-oxo-3-(3-oxo-4H-pyrazino[2,3-b][1,4]oxazin-6-yl)-1-oxa-3,8-diazaspiro[4.5]decan-8-yl]methyl]-3,5,6,7-tetrahydrocyclopenta[f]benzimidazol-2-yl]-2-(methylamino)acetamide]
